The values that follow come from patent US5250570A, “Amidobenzene derivatives, compositions and use” (Imperial Chemical Industries PLC, priority 1990, dated 1993).

The subject of assay [1] is aldose reductase. The assay is described as follows: Reduction of sciatic nerve sorbitol levels in streptozotocin-diabetic rats (inhibition of aldose reductase in vivo). As to conditions: 5 daily oral doses of 3 mg/kg. Set-up: species or system rat. On the procedure:
Rats are made diabetic (as evidenced by severe glucosuria being present) by dosing with streptozotocin. The animals are then dosed daily with the test compound for one, two or five days. The animals are then sacrificed 2-6 hours after the final dose and the eye lenses and/or sciatic nerves are removed. After a standard work-up procedure the residual sorbitol levels in each tissue are determined by gas liquid chromatography after conversion to the polytrimethylsilyl derivatives. Inhibition of aldose reductase in vivo can then be assessed by comparing the residual sorbitol levels in tissues from the dosed diabetic group of rats with those of an undosed group of diabetic rats and an undosed group of normal rats.
In a variation of the above test diabetic rats are dosed at a fixed daily oral dose for five days and then sacrificed 6 hours after the final dose and the reduction of sciatic nerve sorbitol assessed relative to that in control animals.

The target in assay [2] is T1, aldose reductase (Bos taurus, UniProt P16116).
T1 construct: partially purified aldose reductase is isolated in known manner from bovine lenses; from tissue; host or cells: bovine lens
The assay is described as follows: In vitro inhibition of partially purified bovine lens aldose reductase (spectrophotometric). As to conditions: partially purified aldose reductase from bovine lenses. It is filed as biochemical. The source says:
Thus, in a standard procedure partially purified aldose reductase is isolated in known manner from bovine lenses. The percentage inhibition of this enzyme's ability in vitro to catalyse the reduction of aldoses to polyhydric alcohols, and particularly to reduce glucose to sorbitol, caused by a test compound can then be determined using standard spectrophotometric methods.

A word on the IC50: it is the concentration at which inhibition is half-maximal. A high value points to weaker potency in that assay. Turning to `Cc1cc(NC(=O)COc2ccccc2)cc(C)c1S(=O)(=O)C[N+](=O)[O-]` [Example 1, (2,6-dimethyl-4-[2-phenoxyacetamido]phenylsulfonyl)nitromethane], the “reduction in sciatic nerve sorbitol levels” value in the assay with aldose reductase [1] amounted to 78%. This compound also displayed an IC50 at aldose reductase [2] of 44 nM.
